# Results as given in ChEMBL document CHEMBL3867472, “Discovery of benzofuran propanoic acid GPR120 agonists: From uHTS hit to mechanism-based pharmacodynamic effects” (Bioorg Med Chem Lett, 2016).
# pEC50, pIC50: −log10 of the molar value. Calls of active or inactive are those of the source. The calls are words filed in the database; no cut-off is given here.
# Columns and labels:
# [1] = Cmax in mouse at 2 mg/kg, iv or 10 mg/kg, po; format: ADME, organism-based; conditions: in vivo
# [2] = Half life in mouse at 2 mg/kg, iv or 10 mg/kg, po; format: ADME, organism-based; conditions: in vivo
# [3] = biological target: T1, Free fatty acid receptor 4 (Homo sapiens) (UniProt Q5NUL3); test: Agonist activity at human GPR120 expressed in CHOK1 cells measured after 60 mins by IP1-HTRF assay relative to basal level; format: functional, cell-based; set-up: concentration or dose not given beside the values; conditions: CHO-K1
# T1 sequence (whole entry): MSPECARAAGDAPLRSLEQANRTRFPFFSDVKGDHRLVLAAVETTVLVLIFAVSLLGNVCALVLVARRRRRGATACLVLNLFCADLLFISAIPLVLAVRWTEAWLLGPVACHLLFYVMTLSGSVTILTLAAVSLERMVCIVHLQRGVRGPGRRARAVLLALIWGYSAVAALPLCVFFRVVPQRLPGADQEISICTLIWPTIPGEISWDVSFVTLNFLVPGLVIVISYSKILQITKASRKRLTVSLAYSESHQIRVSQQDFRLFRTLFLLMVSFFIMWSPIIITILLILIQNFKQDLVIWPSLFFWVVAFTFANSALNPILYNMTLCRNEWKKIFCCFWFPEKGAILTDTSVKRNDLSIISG
# [4] = biological target: Sodium channel protein type 5 subunit alpha (Homo sapiens, UniProt Q14524); test: Inhibition of Nav1.5 (unknown origin)
# [5] = biological target: T2, Free fatty acid receptor 4 (Mus musculus) (UniProt Q7TMA4); test: Agonist activity at mouse GPR120 expressed in CHOK1 cells measured after 60 mins by IP1-HTRF assay relative to basal level; format: functional, cell-based; set-up: concentration or dose not given beside the values; conditions: CHO-K1
# T2 sequence (whole entry): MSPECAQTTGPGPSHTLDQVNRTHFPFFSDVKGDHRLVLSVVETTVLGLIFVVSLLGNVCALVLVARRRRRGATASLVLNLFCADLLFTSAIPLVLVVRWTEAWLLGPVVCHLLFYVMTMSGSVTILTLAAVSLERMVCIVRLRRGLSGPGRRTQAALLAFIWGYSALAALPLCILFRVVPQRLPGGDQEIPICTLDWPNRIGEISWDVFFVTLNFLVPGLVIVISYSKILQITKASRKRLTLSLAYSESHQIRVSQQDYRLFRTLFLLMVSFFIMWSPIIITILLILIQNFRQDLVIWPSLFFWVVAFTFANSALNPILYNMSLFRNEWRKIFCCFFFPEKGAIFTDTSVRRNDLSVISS
# [6] = Protein binding in mouse plasma; format: ADME, cell-free; conditions: read-out: PPB (converted)
# Cytochrome P450 3A4 = Cytochrome P450 3A4 (Homo sapiens, UniProt P08684); test: Inhibition of CYP3A4 (unknown origin); format: ADME
# [7] = biological target: T3, Free fatty acid receptor 1 (Homo sapiens, UniProt O14842); test: Agonist activity at human GPR40 measured after 60 mins by IP1-HTRF assay relative to basal level; format: functional; set-up: concentration or dose not given beside the values
# [8] = biological target: Voltage-gated inwardly rectifying potassium channel KCNH2 (Homo sapiens, UniProt Q12809)
# [9] = biological target: T4, Free fatty acid receptor 4 (Mus musculus, UniProt Q7TMA4); test: Agonist activity at mouse GPR120 expressed in CHOK1 cells measured after 60 mins by IP1-HTRF assay; format: functional, cell-based, CHO-K1
# T4 sequence (Q7TMA4 whole entry): T2 sequence (whole entry)
# [10] = Volume of distribution in mouse at 2 mg/kg, iv or 10 mg/kg, po; format: ADME, organism-based; conditions: in vivo
# [11] = Oral bioavailability in mouse at 10 mg/kg; format: ADME, organism-based; conditions: in vivo
# Cytochrome P450 2D6 = Cytochrome P450 2D6 (Homo sapiens, UniProt P10635); test: Inhibition of CYP2D6 (unknown origin); format: ADME
# [12] = biological target: T3, Free fatty acid receptor 1; test: Agonist activity at human GPR40 measured after 60 mins by IP1-HTRF assay; format: functional
# [13] = biological target: Voltage-dependent L-type calcium channel subunit alpha-1C (Homo sapiens, UniProt Q13936); test: Inhibition of Cav1.2 (unknown origin)
# [14] = Clearance in mouse at 2 mg/kg, iv or 10 mg/kg, po; format: ADME, organism-based; conditions: in vivo
# Cytochrome P450 2C9 = Cytochrome P450 2C9 (Homo sapiens, UniProt P11712); test: Inhibition of CYP2C9 (unknown origin); format: ADME
# [15] = biological target: T5, Free fatty acid receptor 4 (Homo sapiens, UniProt Q5NUL3); test: Agonist activity at human GPR120 expressed in CHOK1 cells measured after 60 mins by IP1-HTRF assay; format: functional, cell-based, CHO-K1
# T5 sequence (Q5NUL3 whole entry): T1 sequence (whole entry)
# [16] = biological target: T1, Free fatty acid receptor 4 (Homo sapiens); test: Agonist activity at GPR120 (unknown origin) at 5 uM by PathHunter cell based assay
# [17] = biological target: T1, Free fatty acid receptor 4 (Homo sapiens); test: Agonist activity at human GPR120 expressed in CHO-NFAT cells assessed as increase in calcium efflux at 5 uM by Fluo-4 dye-based FLIPR assay; format: functional, cell-based
# CHO-K1 = test: Effect on calcium efflux in CHOK1 cells at 5 uM by Fluo-4 dye-based FLIPR assay; format: functional, Cricetulus griseus
# [18] = Drug uptake in GPR120 knockout mouse blood at 100 mg/kg, po; format: ADME, organism-based; conditions: in vivo, read-out: Drug uptake
# Mus musculus [19] = test: In vivo agonist activity at GPR120 in wild-type mouse assessed as target engagement at 100 mg/kg, po; format: functional
# [20] = Drug uptake in GPR120 knockout mouse blood at 30 mg/kg, po; format: ADME, organism-based; conditions: in vivo, read-out: Drug uptake
# Mus musculus [21] = test: In vivo agonist activity at GPR120 in wild-type mouse assessed as target engagement at 30 mg/kg, po; format: functional
# Mus musculus [22] = test: Reduction of glucose excursion in GPR120 knockout mouse at 30 and 100 mg/kg, po by oral glucose tolerance test; format: functional, organism-based
# [23] = Drug uptake in wild-type mouse blood at 30 mg/kg, po; format: ADME, organism-based; conditions: in vivo, read-out: Drug uptake
# [24] = Drug uptake in wild-type mouse blood at 100 mg/kg, po; format: ADME, organism-based; conditions: in vivo, read-out: Drug uptake
# [25] = Antidiabetic activity in wild-type mouse assessed as reduction in glucose excursion at 30 and 100 mg/kg, po by oral glucose tolerance test; format: functional, organism-based
# T3 sequence (O14842 whole entry): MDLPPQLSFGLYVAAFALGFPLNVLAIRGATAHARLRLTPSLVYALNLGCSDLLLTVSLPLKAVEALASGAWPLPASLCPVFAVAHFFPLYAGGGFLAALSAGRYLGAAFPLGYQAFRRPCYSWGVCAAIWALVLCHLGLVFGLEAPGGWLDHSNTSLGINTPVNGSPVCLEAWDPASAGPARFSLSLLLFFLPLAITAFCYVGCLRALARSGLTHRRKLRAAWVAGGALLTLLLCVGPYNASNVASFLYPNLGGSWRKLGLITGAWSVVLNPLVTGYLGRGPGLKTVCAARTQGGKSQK
# Sequence of Cytochrome P450 3A4 (P08684 whole entry): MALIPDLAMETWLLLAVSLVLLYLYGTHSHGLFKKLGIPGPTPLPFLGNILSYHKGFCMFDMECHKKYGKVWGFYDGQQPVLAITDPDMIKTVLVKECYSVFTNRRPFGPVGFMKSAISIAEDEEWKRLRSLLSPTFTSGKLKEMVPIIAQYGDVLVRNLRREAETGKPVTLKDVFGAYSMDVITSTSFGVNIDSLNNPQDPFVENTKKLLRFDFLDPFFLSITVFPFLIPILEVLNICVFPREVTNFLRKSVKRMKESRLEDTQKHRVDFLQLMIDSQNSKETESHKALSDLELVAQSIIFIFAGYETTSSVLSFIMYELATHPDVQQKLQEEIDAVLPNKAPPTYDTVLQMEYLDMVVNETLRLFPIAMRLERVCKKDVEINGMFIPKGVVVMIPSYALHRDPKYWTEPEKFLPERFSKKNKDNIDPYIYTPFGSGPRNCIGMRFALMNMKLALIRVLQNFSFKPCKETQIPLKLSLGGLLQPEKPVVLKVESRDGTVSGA
# Sequence of Voltage-dependent L-type calcium channel subunit alpha-1C (Q13936 whole entry): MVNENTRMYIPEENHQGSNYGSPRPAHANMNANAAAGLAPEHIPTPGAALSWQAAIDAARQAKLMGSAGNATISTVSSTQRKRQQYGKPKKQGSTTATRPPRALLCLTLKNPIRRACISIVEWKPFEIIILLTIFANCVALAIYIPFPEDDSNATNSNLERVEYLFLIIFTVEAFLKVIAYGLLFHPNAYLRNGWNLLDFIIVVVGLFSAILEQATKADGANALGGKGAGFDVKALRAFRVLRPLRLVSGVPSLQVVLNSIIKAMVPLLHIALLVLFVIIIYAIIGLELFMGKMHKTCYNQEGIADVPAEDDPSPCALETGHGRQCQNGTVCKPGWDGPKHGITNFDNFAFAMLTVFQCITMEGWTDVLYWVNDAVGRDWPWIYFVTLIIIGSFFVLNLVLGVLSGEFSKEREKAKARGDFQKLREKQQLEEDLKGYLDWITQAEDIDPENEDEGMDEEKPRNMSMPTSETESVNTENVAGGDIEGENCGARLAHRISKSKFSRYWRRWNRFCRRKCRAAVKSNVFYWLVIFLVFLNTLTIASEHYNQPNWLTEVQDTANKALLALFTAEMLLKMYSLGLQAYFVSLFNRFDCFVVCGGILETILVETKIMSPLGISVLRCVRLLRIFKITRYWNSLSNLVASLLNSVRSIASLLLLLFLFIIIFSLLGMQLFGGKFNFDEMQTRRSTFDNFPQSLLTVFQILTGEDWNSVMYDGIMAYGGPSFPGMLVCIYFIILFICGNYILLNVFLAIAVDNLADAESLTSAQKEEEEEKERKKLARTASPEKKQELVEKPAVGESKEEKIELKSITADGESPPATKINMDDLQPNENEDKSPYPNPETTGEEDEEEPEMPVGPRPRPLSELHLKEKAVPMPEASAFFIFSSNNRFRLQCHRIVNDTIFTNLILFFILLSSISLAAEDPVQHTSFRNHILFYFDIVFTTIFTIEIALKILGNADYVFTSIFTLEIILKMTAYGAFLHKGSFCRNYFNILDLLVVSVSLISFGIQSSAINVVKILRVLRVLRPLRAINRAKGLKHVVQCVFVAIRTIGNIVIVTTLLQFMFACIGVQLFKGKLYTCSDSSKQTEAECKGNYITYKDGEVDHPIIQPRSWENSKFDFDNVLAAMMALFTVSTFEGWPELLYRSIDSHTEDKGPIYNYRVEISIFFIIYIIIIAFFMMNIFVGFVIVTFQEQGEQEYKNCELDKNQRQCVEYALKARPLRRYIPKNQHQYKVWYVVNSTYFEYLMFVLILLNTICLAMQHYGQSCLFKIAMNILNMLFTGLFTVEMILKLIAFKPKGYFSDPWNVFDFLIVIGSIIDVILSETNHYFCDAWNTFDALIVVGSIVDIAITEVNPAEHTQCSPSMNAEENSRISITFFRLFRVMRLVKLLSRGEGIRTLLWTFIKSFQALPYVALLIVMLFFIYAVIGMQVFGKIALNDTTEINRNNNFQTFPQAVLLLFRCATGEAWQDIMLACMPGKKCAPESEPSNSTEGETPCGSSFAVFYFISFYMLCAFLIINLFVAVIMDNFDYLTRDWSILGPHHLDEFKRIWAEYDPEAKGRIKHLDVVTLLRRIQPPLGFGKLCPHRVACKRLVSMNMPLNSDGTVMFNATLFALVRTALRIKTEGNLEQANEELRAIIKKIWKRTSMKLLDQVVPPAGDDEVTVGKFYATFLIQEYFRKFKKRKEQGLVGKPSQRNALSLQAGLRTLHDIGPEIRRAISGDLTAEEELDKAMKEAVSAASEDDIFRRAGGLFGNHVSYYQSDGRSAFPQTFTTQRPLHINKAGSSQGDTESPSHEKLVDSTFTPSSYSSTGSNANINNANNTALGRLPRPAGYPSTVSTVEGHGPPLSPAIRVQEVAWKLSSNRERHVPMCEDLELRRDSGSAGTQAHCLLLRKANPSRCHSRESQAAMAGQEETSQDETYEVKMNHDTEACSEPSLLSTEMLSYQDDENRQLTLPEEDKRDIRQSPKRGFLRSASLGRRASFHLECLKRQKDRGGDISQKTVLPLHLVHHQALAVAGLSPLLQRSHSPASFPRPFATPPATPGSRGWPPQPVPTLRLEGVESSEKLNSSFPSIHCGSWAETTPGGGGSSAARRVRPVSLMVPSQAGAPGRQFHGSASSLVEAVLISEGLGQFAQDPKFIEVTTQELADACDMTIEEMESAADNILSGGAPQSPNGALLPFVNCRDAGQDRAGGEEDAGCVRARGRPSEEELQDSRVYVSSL
# Sequence of Sodium channel protein type 5 subunit alpha (Q14524 whole entry): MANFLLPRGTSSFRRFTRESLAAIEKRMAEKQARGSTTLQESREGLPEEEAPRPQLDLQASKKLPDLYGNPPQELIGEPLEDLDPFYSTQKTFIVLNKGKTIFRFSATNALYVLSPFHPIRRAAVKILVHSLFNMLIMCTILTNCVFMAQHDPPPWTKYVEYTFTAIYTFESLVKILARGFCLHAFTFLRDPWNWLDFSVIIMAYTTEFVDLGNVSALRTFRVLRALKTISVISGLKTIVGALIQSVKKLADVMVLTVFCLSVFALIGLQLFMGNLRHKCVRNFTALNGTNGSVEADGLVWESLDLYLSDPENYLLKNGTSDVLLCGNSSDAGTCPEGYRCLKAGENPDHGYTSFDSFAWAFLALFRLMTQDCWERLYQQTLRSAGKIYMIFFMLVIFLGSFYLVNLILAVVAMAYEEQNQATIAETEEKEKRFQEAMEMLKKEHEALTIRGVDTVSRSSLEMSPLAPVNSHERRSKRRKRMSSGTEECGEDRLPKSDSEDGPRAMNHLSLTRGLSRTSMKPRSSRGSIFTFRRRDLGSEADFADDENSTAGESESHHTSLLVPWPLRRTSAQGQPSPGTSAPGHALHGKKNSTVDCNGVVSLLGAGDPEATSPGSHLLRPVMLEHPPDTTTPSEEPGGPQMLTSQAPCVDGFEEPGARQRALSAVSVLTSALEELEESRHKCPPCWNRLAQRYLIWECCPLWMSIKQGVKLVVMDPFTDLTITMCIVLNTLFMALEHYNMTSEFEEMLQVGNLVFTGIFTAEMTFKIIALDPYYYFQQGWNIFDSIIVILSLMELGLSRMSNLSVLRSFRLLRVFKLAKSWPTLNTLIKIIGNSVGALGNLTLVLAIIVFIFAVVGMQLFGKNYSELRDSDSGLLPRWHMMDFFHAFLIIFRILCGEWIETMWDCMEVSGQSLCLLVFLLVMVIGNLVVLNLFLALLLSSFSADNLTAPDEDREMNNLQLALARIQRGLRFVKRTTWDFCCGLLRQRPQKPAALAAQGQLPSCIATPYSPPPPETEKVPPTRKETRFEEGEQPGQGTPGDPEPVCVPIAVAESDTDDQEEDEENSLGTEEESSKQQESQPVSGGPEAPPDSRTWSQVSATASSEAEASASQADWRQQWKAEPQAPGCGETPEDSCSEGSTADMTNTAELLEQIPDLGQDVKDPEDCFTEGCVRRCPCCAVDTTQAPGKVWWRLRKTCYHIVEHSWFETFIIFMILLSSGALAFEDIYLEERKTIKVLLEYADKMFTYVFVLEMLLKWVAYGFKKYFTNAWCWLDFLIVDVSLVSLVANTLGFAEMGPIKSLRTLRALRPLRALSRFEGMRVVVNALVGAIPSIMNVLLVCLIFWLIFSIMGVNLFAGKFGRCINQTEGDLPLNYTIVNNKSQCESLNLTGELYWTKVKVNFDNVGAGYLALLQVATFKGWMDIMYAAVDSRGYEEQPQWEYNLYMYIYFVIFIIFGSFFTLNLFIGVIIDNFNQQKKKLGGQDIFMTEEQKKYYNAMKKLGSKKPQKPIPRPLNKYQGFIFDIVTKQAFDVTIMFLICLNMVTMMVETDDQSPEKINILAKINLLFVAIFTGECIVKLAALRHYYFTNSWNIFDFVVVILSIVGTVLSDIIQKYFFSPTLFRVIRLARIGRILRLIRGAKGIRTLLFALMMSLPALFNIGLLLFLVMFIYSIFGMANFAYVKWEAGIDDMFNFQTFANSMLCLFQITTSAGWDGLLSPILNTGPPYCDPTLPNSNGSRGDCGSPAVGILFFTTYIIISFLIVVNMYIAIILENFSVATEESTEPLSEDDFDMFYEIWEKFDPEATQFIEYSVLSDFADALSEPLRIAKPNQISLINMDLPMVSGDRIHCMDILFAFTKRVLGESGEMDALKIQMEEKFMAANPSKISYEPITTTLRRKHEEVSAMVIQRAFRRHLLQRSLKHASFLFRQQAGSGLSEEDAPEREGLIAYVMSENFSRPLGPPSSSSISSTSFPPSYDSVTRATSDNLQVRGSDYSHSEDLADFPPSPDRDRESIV
Cmax [1] [µM],half-life [2] [h],Activity [3] [%],Activity [5] [%],fraction unbound [6],pIC50 (Cytochrome P450 3A4),Activity [7] [%],pEC50 [9],Vd [10] [L/kg],bioavailability [11] [%],pIC50 (Cytochrome P450 2D6),pEC50 [12],clearance [14] [mL/min/kg],pIC50 (Cytochrome P450 2C9),pEC50 [15],SMILES,pIC50 [4],pIC50 [13],other results
2.38,1.3,71,64,0.049,< 4.30,40,8.05,1.86,45,< 4.30,5.98,17,4.48,7.24,O=C(O)CCCOc1ccc(-c2cc(OC(F)(F)F)ccc2Cl)cc1,4.76,< 4.52,pIC50 [8]: < 4.22
4.64,3.3,24,29,0.042,–,–,6.31,5.6,97,–,< 5.00,24,–,6.32,O=C(O)CCCOc1ccc(-c2noc3ccccc23)c(Cl)c1Cl,–,–,Activity [16]: Active; Activity [17]: > 11%; Activity (CHO-K1): <10%
8.17,1.6,73,75,0.002,< 4.30,38,7.37,3,100,< 4.30,5.74,20,4.42,7.20,O=C(O)CCc1cc2cc(-c3cc(OC(F)(F)F)ccc3F)ccc2o1,< 4.52,4.82,concentration [18]: 23 µM; Activity (Mus musculus [19]): 68%; concentration [20]: 24.8 µM; Activity (Mus musculus [21]): 40%; Activity (Mus musculus [22]): Active; concentration [23]: 33.4 µM; concentration [24]: 45.1 µM; Activity [25]: Active
